This note sets out measurements from patent US20230159511A1, “TETRAHYDROISOQUINOLINE COMPOUNDS AS NRF2 ACTIVATORS” (C4X Discovery Limited, priority 2020, published 2023).

In experiment [1] the test system is NRF2 mediated gene NAD(P)H:quinone acceptor oxidoreductase 1 (NQO1) in BEAS-2B cells. Put plainly: Beas2B NQO1 mRNA Cell Based Assay. To be noted: Homo sapiens; BEAS-2B cells, compound for 24 h; increase in NQO1 mRNA compared to vehicle (0.1% DMSO) control; read-out: EC50. Also noted: species or system human. The method, boiled down:
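BEAS-2B cells treated 24 h with compound; NQO1 mRNA measured by one-step TaqMan RT-PCR on crude lysates, normalised to beta actin by ΔΔCT. Fold increase over 0.1% DMSO vehicle; EC50 from four-parameter logistic fit.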

Experiment [2] deals with T1, human KEAP1 (N-term, residues 321-609) (Homo sapiens, UniProt Q14145).
T1 construct: human KEAP1 (N-term, residues 321-609)
Put plainly: KEAP1 Kelch Fluorescence Polarization (FP) Assay. Format: binding. To be noted: inhibition of Kelch domain-NRF2 interaction; 2 nM FITC-labelled NRF2 peptide, 25 nM KEAP1, 1 h room temperature; compounds below 10 nM cannot be differentiated. In a few lines:
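FP competition: 2 nM FITC-NRF2 peptide (LDEETGEFL) with 25 nM KEAP1 Kelch domain, pH 8.0 Tris buffer, 0.5% DMSO, 1 h at room temperature; 12-point 1:3 dilutions from 10 μM.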
On the technique in general: Polarisation of emitted light reports the rotation of a fluorescent probe.

T1 sequence (Q14145 321-609): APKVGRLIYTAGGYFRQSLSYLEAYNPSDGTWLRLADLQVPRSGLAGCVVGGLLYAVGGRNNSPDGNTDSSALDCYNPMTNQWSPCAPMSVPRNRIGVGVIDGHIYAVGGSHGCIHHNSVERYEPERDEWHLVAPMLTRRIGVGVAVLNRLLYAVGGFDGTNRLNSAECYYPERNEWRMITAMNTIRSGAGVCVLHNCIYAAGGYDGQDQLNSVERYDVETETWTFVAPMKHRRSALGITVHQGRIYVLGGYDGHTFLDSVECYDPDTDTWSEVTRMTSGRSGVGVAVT

Usually EC50 stands for the concentration giving half of the maximal effect. By IC50 is commonly meant the concentration at which inhibition is half-maximal. A high value points to weaker potency in that assay. `CNC(=O)[C@H]1CCCC[C@H]1C(=O)N1CCc2c(Cl)ccc(OCc3ccc4ncn(C)c4n3)c2[C@H]1CN1CCCC1=O` [Example 80, (1S,2R)-2-((S)-5-chloro-8-((3-methyl-3H-imidazo[4,5-b]pyridin-5-yl)methoxy)-1-((2-oxopyrrolidin-1-yl)methyl)-1,2,3,4-tetrahydroisoquinoline-2-carbonyl)-N-methylcyclohexane-1-carboxamide]: the EC50 in experiment [1] was 2250 nM. Further, the IC50 in experiment [2] stood at 371 nM.

For the molecule `CNC(=O)[C@H]1CCCC[C@H]1C(=O)N1CCc2c(Br)ccc(OCc3nnn(C)c3C(F)F)c2[C@H]1CN1Cc2ccccc2C1=O` [Example 56, (1S,2R)-2-((S)-5-bromo-8-((5-(difluoromethyl)-1-methyl-1H-1,2,3-triazol-4-yl)methoxy)-1-((1-oxoisoindolin-2-yl)methyl)-1,2,3,4-tetrahydroisoquinoline-2-carbonyl)-N-methylcyclohexane-1-carboxamide], the EC50 in experiment [1] came out at 124 nM. In addition, in experiment [2], the IC50 came to 13 nM.

Turning to `CNC(=O)[C@H]1CCCC[C@H]1C(=O)N1CCc2c(Cl)ccc(OCc3nnn(C)c3C(F)F)c2[C@H]1CN1Cc2ccccc2C1=O` [Example 76, (1S,2R)-2-((S)-5-chloro-8-((5-(difluoromethyl)-1-methyl-1H-1,2,3-triazol-4-yl)methoxy)-1-((1-oxoisoindolin-2-yl)methyl)-1,2,3,4-tetrahydroisoquinoline-2-carbonyl)-N-methylcyclohexane-1-carboxamide], in experiment [1], the EC50 came out at 166 nM. Also, the IC50 in experiment [2] stood at 11 nM.

For the molecule `CCNC(=O)[C@H]1CCCC[C@H]1C(=O)N1CCc2cccc(OCCNC(=O)c3cc(C)on3)c2[C@H]1CN1C(=O)c2ccccc2C1=O` [Example 6, N-(2-(((S)-1-((1,3-dioxoisoindolin-2-yl)-methyl)-2((1R,2S)-2-(ethylcarbamoyl)cyclohexane-1-carbonyl)-1,2,3,4-tetrahydroisoguinolin-8-yl)oxy)ethyl)-5-methylisoxazole-3-carboxamide], the EC50 in experiment [1] came out at 2360 nM. The molecule further displayed an IC50 in experiment [2] of 196 nM.

For `CNC(=O)[C@@]1(C)CCCC[C@H]1C(=O)N1CCc2c(Cl)ccc(OCc3nnn(C)c3C3CC3)c2[C@H]1CN1CCCC1=O` [Example 99, (1S,2R)-2-((S)-5-chloro-8-((5-cyclopropyl-1-methyl-1H-1,2,3-triazol-4-yl)methoxy)-1-((2-oxopyrrolidin-1-yl)methyl)-1,2,3,4-tetrahydroisoquinoline-2-carbonyl)-N,1-dimethylcyclohexane-1-carboxamide], the concentration giving a half-maximal response (EC50) in experiment [1] was determined as 109 nM. The IC50 in experiment [2] amounted to 7.4 nM.

As to `CNC(=O)N1CCC[C@H]1C(=O)N1CCc2c(Cl)ccc(OCc3cn(C)nn3)c2[C@H]1CN1CCCC1=O` [Example 89, (S)-2-((S)-5-chloro-8-((1-methyl-1H-1,2,3-triazol-4-yl)methoxy)-1-((2-oxopyrrolidin-1-yl)methyl)-1,2,3,4-tetrahydroisoquinoline-2-carbonyl)-N-methylpyrrolidine-1-carboxamide], in experiment [1], the EC50 was found to be 8720 nM. It took 19 nM to reach half-maximal inhibition in experiment [2] (IC50).

With `CNC(=O)[C@H]1CCCC[C@H]1C(=O)N1CCc2c(Cl)ccc(OCc3cnccn3)c2[C@H]1CN1CCCC1=O` [Example 62, (1S,2R)-2-((S)-5-chloro-1-((2-oxopyrrolidin-1-yl)methyl)-8-(pyrazin-2-ylmethoxy)-1,2,3,4-tetrahydroisoquinoline-2-carbonyl)-N-methylcyclohexane-1-carboxamide], in experiment [1], the EC50 was 1460 nM. In experiment [2], this molecule had an IC50 of 82 nM.

Take `CNC(=O)[C@@]1(C)CCCC[C@H]1C(=O)N1CCc2c(Cl)ccc(OCc3cn(C)nn3)c2[C@H]1CN1CC2(CC2)CC1=O` [Example 102, (1S,2R)-2-((S)-5-chloro-8-((1-methyl-1H-1,2,3-triazol-4-yl)methoxy)-1-((6-oxo-5-azaspiro[2.4]heptan-5-yl)methyl)-1,2,3,4-tetrahydroisoquinoline-2-carbonyl)-N,1-dimethylcyclohexane-1-carboxamide]: in experiment [1], the EC50 turned out to be 59 nM. In experiment [2], this molecule gave an IC50 of 12 nM.

As to `CNC(=O)[C@@]1(C)CCCC[C@H]1C(=O)N1CCc2c(Cl)ccc(OCc3nnn(C)c3C(F)(F)F)c2[C@H]1CN1CC2(CC2)CC1=O` [Example 97, (1S,2R)-2-((S)-5-chloro-8-((1-methyl-5-(trifluoromethyl)-1H-1,2,3-triazol-4-yl)methoxy)-1-((6-oxo-5-azaspiro[2.4]heptan-5-yl)methyl)-1,2,3,4-tetrahydroisoquinoline-2-carbonyl)-N,1-dimethylcyclohexane-1-carboxamide], in experiment [1], the EC50 turned out to be 114 nM. The molecule also displayed an IC50 in experiment [2] of 8.9 nM.

In the case of `Cn1nnc(COc2ccc(Cl)c3c2[C@@H](CN2CC4(CC4)CC2=O)N(C(=O)[C@@H]2CCCC[C@]2(C)C(N)=O)CC3)c1C(F)F` [Example 100, (1S,2R)-2-((S)-5-chloro-8-((5-(difluoromethyl)-1-methyl-1H-1,2,3-triazol-4-yl)methoxy)-1-((6-oxo-5-azaspiro[2.4]heptan-5-yl)methyl)-1,2,3,4-tetrahydroisoquinoline-2-carbonyl)-1-methylcyclohexane-1-carboxamide], the EC50 in experiment [1] is 26 nM. The molecule further came in with a 50% inhibitory concentration (IC50) in experiment [2] of 6.4 nM.

Regarding `CNC(=O)[C@@]1(C)CCCC[C@H]1C(=O)N1CCc2c(Cl)cc(F)c(OCc3nnn(C)c3C(F)F)c2[C@H]1CN1CCCC1=O` [Example 109, (1S,2R)-2-((S)-5-chloro-8-((5-(difluoromethyl)-1-methyl-1H-1,2,3-triazol-4-yl)methoxy)-7-fluoro-1-((2-oxopyrrolidin-1-yl)methyl)-1,2,3,4-tetrahydroisoquinoline-2-carbonyl)-N,1-dimethylcyclohexane-1-carboxamide], the EC50 in experiment [1] is 140 nM. Besides, the IC50 in experiment [2] was found to be 7.5 nM.

For the molecule `Cn1nnc(COc2c(F)cc(Cl)c3c2[C@@H](CN2CC4(CC4)CC2=O)N(C(=O)[C@@H]2CCCC[C@]2(C)C(N)=O)CC3)c1C(F)F` [Example 107, (1S,2R)-2-((S)-5-chloro-8-((5-(difluoromethyl)-1-methyl-1H-1,2,3-triazol-4-yl)methoxy)-7-fluoro-1-((6-oxo-5-azaspiro[2.4]heptan-5-yl)methyl)-1,2,3,4-tetrahydroisoquinoline-2-carbonyl)-1-methylcyclohexane-1-carboxamide], the EC50 in experiment [1] was found to be 37 nM. In experiment [2], this molecule came in with an IC50 of 6.2 nM.

As to `CNC(=O)[C@H]1CCCC[C@H]1C(=O)N1CCc2c(Cl)ccc(OCCc3cn(C)nn3)c2[C@H]1CN1CCCC1=O` [Example 66, (1S,2R)-2-((S)-5-chloro-8-(2-(1-methyl-1H-1,2,3-triazol-4-yl)ethoxy)-1-((2-oxopyrrolidin-1-yl)methyl)-1,2,3,4-tetrahydroisoquinoline-2-carbonyl)-N-methylcyclohexane-1-carboxamide], the EC50 in experiment [1] worked out at 5660 nM. In experiment [2], this molecule returned an IC50 of 151 nM.
